Data as given in patent US20240158446A1, “CYCLIC COMPOUND HAVING SELECTIVE INHIBITORY ACTION ON KRAS OVER HRAS AND NRAS” (CHUGAI SEIYAKU KABUSHIKI KAISHA, priority 2021, published 2024).
Read-outs that look alike come from different tables or passages of the source.

Columns and labels:
[1] = target: GDP-bound HRAS wild-type protein (Homo sapiens, UniProt P01112); experiment: Binding to HRAS by surface plasmon resonance (SPR), Single Cycle Kinetics; conditions: for HRAS/KRAS (ratio of KD value for HRAS to KD value for KRAS) / ratio of the KD value with respect to GDP-bound HRAS wild-type protein to the KD value with respect to KRAS: SPR; for HRAS/KRAS (ratio of KD value for HRAS to KD value for KRAS): GDP-bound HRAS wild-type protein vs GDP-bound KRAS wild-type protein; for HRAS/KRAS (ratio of KD value with respect to GDP-bound HRAS wild-type protein to KD value with respect to KRAS): SPR KD ratio HRAS/KRAS, class symbols
GDP-bound HRAS wild-type protein, sequence (P01112 whole entry): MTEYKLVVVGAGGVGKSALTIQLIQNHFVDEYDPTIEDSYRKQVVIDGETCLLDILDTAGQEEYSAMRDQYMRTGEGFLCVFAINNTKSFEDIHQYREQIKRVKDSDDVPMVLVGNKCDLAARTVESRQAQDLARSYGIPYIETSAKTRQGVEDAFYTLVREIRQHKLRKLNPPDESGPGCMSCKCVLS

[2] = target: GDP-bound NRAS wild-type protein (Homo sapiens, UniProt P01111); experiment: Binding to NRAS by surface plasmon resonance (SPR), Single Cycle Kinetics; conditions: for NRAS/KRAS (ratio of KD value for NRAS to KD value for KRAS) / ratio of the KD value with respect to GDP-bound NRAS wild-type protein to the KD value with respect to KRAS: SPR; for NRAS/KRAS (ratio of KD value for NRAS to KD value for KRAS): GDP-bound NRAS wild-type protein vs GDP-bound KRAS wild-type protein; for NRAS/KRAS (ratio of KD value with respect to GDP-bound NRAS wild-type protein to KD value with respect to KRAS): SPR KD ratio NRAS/KRAS, class symbols
GDP-bound NRAS wild-type protein, sequence (P01111 whole entry): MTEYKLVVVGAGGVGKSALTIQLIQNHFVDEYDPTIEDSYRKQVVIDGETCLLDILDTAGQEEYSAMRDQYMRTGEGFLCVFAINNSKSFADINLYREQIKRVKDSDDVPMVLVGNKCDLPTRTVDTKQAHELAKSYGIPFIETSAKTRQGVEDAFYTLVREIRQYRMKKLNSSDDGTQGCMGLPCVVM

[3] = tested on: human lung cancer strain NCI-H441;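 also: cell proliferation inhibition after four days measured by CellTiter-Glo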
[4] = target: GDP-bound KRAS wild-type protein (Homo sapiens, UniProt P01116); experiment: Binding to KRAS by surface plasmon resonance (SPR), Single Cycle Kinetics; conditions: GDP-bound KRAS wild-type protein, read-out: KRAS KD
GDP-bound KRAS wild-type protein, sequence (P01116 whole entry): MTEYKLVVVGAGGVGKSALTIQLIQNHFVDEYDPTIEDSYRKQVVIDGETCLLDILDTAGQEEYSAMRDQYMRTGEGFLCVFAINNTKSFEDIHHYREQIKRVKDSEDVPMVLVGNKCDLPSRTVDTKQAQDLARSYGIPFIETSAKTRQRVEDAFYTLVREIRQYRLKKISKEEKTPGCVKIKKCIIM

[5] = read-out: NCI-H441 cell proliferation inhibitory activity, 50% proliferation inhibitory concentration (IC50 value), NCI-H441, four days, CellTiter-Glo
[6] = SPR, Single Cycle Kinetics, 1:1 binding model
[7] = SPR Single Cycle Kinetics, 1:1 binding model

Compound | HRAS/KRAS (ratio of KD value for HRAS to KD value for KRAS) [1] | NRAS/KRAS (ratio of KD value for NRAS to KD value for KRAS) [2] | Kd ([4]; SPR, Single Cycle Kinetics) [nM] | IC50 [3] [nM] | also measured
CCO[C@@H]1C[C@H]2C(=O)NC3(CC(C)(C)C3)C(=O)N(C)[C@@H](C3CCCC3)C(=O)N(C)[C@H](C(=O)N(C)C)CC(=O)N(C)[C@H]3CCCCCc4ccc(cc4)C[C@@H](C(=O)N(C)CC(=O)N[C@@H](CCc4ccc(C(F)(F)F)c(OC)c4)C(=O)N2C1)N1CC/C=C\C[C@@H](C1=O)N(C)C(=O)CN(C1CC1)C(=O)[C@H]([C@@H](C)CC)NC3=O [PP3075] | A (a compound having 10 or more and less than 20 is denoted as A) | A (a compound having 10 or more and less than 20 is denoted as A) | 0.076 | – | ratio of the KD value with respect to GDP-bound HRAS wild-type protein to the KD value with respect to KRAS [1]: A (a compound having 10 or more and less than 20 is denoted as A); ratio of the KD value with respect to GDP-bound NRAS wild-type protein to the KD value with respect to KRAS [2]: A (a compound having 10 or more and less than 20 is denoted as A); IC50 [3, 5]: 1.1 nM
CCO[C@@H]1C[C@H]2C(=O)NC3(CCC3)C(=O)N(C)[C@@H](C3CCCC3)C(=O)N(C)[C@H](C(=O)N3CCOCC3)CC(=O)N(C)[C@@H](CC)C(=O)N[C@@H]([C@@H](C)CC)C(=O)N(C)CC(=O)N(C)[C@H]3C[C@@H](C)[C@@H](C)CN(C3=O)[C@@H](Cc3ccc(C(F)(F)F)cc3)C(=O)N(C)CC(=O)N[C@@H](CCc3cc(F)c(C(F)(F)F)c(F)c3)C(=O)N2C1 [PP1354] | – | – | – | 3.6 | HRAS/KRAS (ratio of KD value for HRAS to KD value for KRAS) ([1]; KD ratio class): B (a compound having 3 or more and less than 10 is denoted as B); NRAS/KRAS (ratio of KD value for NRAS to KD value for KRAS) ([2]; KD ratio class): A (a compound having 10 or more and less than 20 is denoted as A); Kd [4, 6]: 0.056 nM
CC[C@H](C)[C@@H]1NC(=O)[C@H](CC(C)C)N(C)C(=O)C[C@@H](C(=O)N(C)CC)N(C)C(=O)[C@H](C2CCCC2)N(C)C(=O)C2(CC(C)(C)C2)NC(=O)[C@@H]2C[C@H](C)CN2C(=O)[C@H](CCc2cc(F)c(C(F)(F)F)c(F)c2)NC(=O)CN(C)C(=O)[C@H](Cc2ccc(C)cc2)N2CC/C=C\C[C@@H](C2=O)N(C)C(=O)[C@@H]2CCCN2C1=O [PP2411] | A (a compound having 10 or more and less than 20 is denoted as A) | A (a compound having 10 or more and less than 20 is denoted as A) | 1 | 91.4 | –
CC[C@H](C)[C@@H]1NC(=O)[C@H](COC)N(C)C(=O)C[C@@H](C(=O)N(C)C)N(C)C(=O)[C@H](C2CCCCC2)N(C)C(=O)C2(CC(C)(C)C2)NC(=O)[C@@H]2C[C@@H](OC(C)C)CN2C(=O)[C@H](CCc2cc(F)c(C(F)(F)F)c(F)c2)NC(=O)CN(C)C(=O)[C@H](Cc2ccc(C)cc2)N2CC/C=C\C[C@@H](C2=O)N(C)C(=O)CN(C)C1=O [PP2660] | – | – | – | 14.3 | HRAS/KRAS (ratio of KD value with respect to GDP-bound HRAS wild-type protein to KD value with respect to KRAS) [1]: A (a compound having 10 or more and less than 20 is denoted as A); NRAS/KRAS (ratio of KD value with respect to GDP-bound NRAS wild-type protein to KD value with respect to KRAS) [2]: A (a compound having 10 or more and less than 20 is denoted as A); Kd [4, 7]: 0.18 nM
CC[C@H](C)[C@@H]1NC(=O)[C@@H]2CCCCc3ccc(cc3)C[C@@H](C(=O)N(C)CC(=O)N[C@@H](CCc3ccc(C(F)(F)F)c(OC)c3)C(=O)N3C[C@H](OC4CCCC4)C[C@H]3C(=O)NC3(CC(C)(C)C3)C(=O)N(C)[C@@H](C3CCCC3)C(=O)N(C)[C@H](C(=O)N(C)C)CC(=O)N2C)N2CC/C=C\C[C@@H](C2=O)N(C)C(=O)CN(C)C1=O [PP3080] | B (a compound having 3 or more and less than 10 is denoted as B) | A (a compound having 10 or more and less than 20 is denoted as A) | 0.037 | – | ratio of the KD value with respect to GDP-bound HRAS wild-type protein to the KD value with respect to KRAS [1]: B (a compound having 3 or more and less than 10 is denoted as B); ratio of the KD value with respect to GDP-bound NRAS wild-type protein to the KD value with respect to KRAS [2]: A (a compound having 10 or more and less than 20 is denoted as A); IC50 [3, 5]: 4.3 nM
CCO[C@@H]1C[C@H]2C(=O)NC(C)(C)C(=O)N(C)[C@@H](C3CCCC3)C(=O)N(C)[C@H](C(=O)N(C)C)CC(=O)N(C)[C@@H](CC)C(=O)N[C@@H]([C@@H](C)CC)C(=O)N(C)CC(=O)N(C)[C@H]3C/C=C\CCN(C3=O)[C@@H](Cc3ccc(C(F)(F)F)cc3)C(=O)N(C)CC(=O)N[C@@H](CCc3cc(F)c(C(F)(F)F)c(F)c3)C(=O)N2C1 [PP1280] | – | – | – | 34.4 | HRAS/KRAS (ratio of KD value for HRAS to KD value for KRAS) ([1]; KD ratio class): A (a compound having 10 or more and less than 20 is denoted as A); NRAS/KRAS (ratio of KD value for NRAS to KD value for KRAS) ([2]; KD ratio class): A (a compound having 10 or more and less than 20 is denoted as A); Kd [4, 6]: 0.15 nM
CCO[C@@H]1C[C@H]2C(=O)NC3(CCC3)C(=O)N(C)[C@@H](C3CCCC3)C(=O)N(C)[C@H](C(=O)N(C)C)CC(=O)N(C)[C@@H](CC3CC3)C(=O)N[C@@H]([C@@H](C)CC)C(=O)N(C)CC(=O)N(C)[C@H]3C/C=C\CCN(C3=O)[C@@H](Cc3ccc(F)cc3C)C(=O)N(C)CC(=O)N[C@@H](CCc3cc(F)c(Cl)c(F)c3)C(=O)N2C1 [PP1477] | – | – | – | 309 | HRAS/KRAS (ratio of KD value for HRAS to KD value for KRAS) ([1]; KD ratio class): B (a compound having 3 or more and less than 10 is denoted as B); NRAS/KRAS (ratio of KD value for NRAS to KD value for KRAS) ([2]; KD ratio class): A (a compound having 10 or more and less than 20 is denoted as A); Kd [4, 6]: 1.4 nM
CCOC[C@H]1C(=O)N[C@@H]([C@@H](C)CC)C(=O)N2CCC[C@H]2C(=O)N(C)[C@H]2C/C=C\CCN(C2=O)[C@@H](Cc2ccc(C(F)(F)F)cc2)C(=O)N(C)CC(=O)N[C@@H](CCc2ccc(C(F)(F)F)c(OC)c2)C(=O)N2C[C@@H](C)C[C@H]2C(=O)N(C)C2(CCC2)C(=O)N(C)[C@@H](C2CCCC2)C(=O)N(C)[C@H](C(=O)N(C)C)CC(=O)N1C [PP2363] | B (a compound having 3 or more and less than 10 is denoted as B) | A (a compound having 10 or more and less than 20 is denoted as A) | 0.062 | 7.5 | –
CCO[C@@H]1C[C@H]2C(=O)NC3(CCC3)C(=O)N(C)[C@@H](C3CCCC3)C(=O)N(C)[C@H](C(=O)N(C)C)CC(=O)N(C)[C@@H](CC)C(=O)N[C@@H]([C@@H](C)CC)C(=O)N(C)CC(=O)N(C)[C@H]3CCCCCN(C3=O)[C@@H](Cc3ccc(F)cc3)C(=O)N(C)CC(=O)N[C@@H](CCc3cc(F)c(C(F)(F)F)c(F)c3)C(=O)N2C1 [PP1190] | B (a compound having 3 or more and less than 10 is denoted as B) | B (a compound having 3 or more and less than 10 is denoted as B) | 0.092 | 15.5 | –
CCC[C@H]1C(=O)N[C@@H](CC(C)C)C(=O)N(CCOC)CC(=O)N(C)[C@H]2C/C=C\CCN(C2=O)[C@@H](Cc2ccc(C)cc2)C(=O)N(C)CC(=O)N[C@@H](CCc2ccc(C(F)(F)F)c(OC)c2)C(=O)N2C[C@H](OCC)C[C@H]2C(=O)NC2(CC(C)(C)C2)C(=O)N(C)[C@@H](C2CCCC2)C(=O)N(C)[C@H](C(=O)N(C)C)CC(=O)N1C [PP2522] | – | – | – | 113 | HRAS/KRAS (ratio of KD value with respect to GDP-bound HRAS wild-type protein to KD value with respect to KRAS) [1]: B (a compound having 3 or more and less than 10 is denoted as B); NRAS/KRAS (ratio of KD value with respect to GDP-bound NRAS wild-type protein to KD value with respect to KRAS) [2]: B (a compound having 3 or more and less than 10 is denoted as B); Kd [4, 7]: 3.2 nM
CCC(CC)[C@H]1C(=O)N(C)[C@H](C(=O)N(C)C)CC(=O)N(C)[C@@H](C(C)C)C(=O)N[C@@H]([C@@H](C)CC)C(=O)N(C)CC(=O)N(C)[C@H]2C/C=C\CCN(C2=O)[C@@H](CC2CCC(F)(F)CC2)C(=O)N(C)CC(=O)N[C@@H](CCc2cc(F)c(C(F)(F)F)c(F)c2)C(=O)N2C[C@@H](C)C[C@H]2C(=O)NC2(CC(C)(C)C2)C(=O)N1C [PP2496] | A (a compound having 10 or more and less than 20 is denoted as A) | A (a compound having 10 or more and less than 20 is denoted as A) | 6.2 | 97.3 | –
